Laboratory results published in article PMC7093416, “Selective USP7 inhibition elicits cancer cell killing through a p53-dependent mechanism” (Scientific Reports, 2020).

Tested on: panel of 484 cancer cell lines
Assay: PRISM cancer cell line profiling, 5 days
Type: cell-based
Set-up: AUC: unit not given beside the values
Method: Cancer cell line profiling was performed using the Broad’s PRISM platform. Cell treatment and data analysis were performed as described in Yu et al[42]. Raw Luminex signal was converted to AUC values for each cell line as described. The resulting AUC profile for each compound was modeled against DepMap using the limma package in R[71]. Because hotspot mutation analysis was performed against DepMap, TP53 annotations in Fig. 6c,d are directly from DepMap.

CN1CCN(CCC(=O)Nc2ccc3c(=O)n(CC4(O)CCN(C(=O)[C@H](CCCNC(=O)c5ccc6c(Cl)c7c(nc6c5)CCCC7)Cc5ccccc5)CC4)cnc3c2)CC1 [XL177B]
AUC (HCC1438_LUNG): 0.9398
AUC (HCC1588_LUNG): 1.124
AUC (HCC1806_BREAST): 1.262
AUC (HCC1937_BREAST): 0.9651
AUC (HCC4006_LUNG): 1.102
AUC (HCT15_LARGE_INTESTINE): 1.193
AUC (HCT116_LARGE_INTESTINE): 1.02
AUC (HDQP1_BREAST): 0.9999
AUC (HEC1A_ENDOMETRIUM): 1.104
AUC (HEC1B_ENDOMETRIUM): 1.096
AUC (HEC6_ENDOMETRIUM): 1.02
AUC (HEC59_ENDOMETRIUM): 1.13
AUC (HEC108_ENDOMETRIUM): 0.935
AUC (HEC151_ENDOMETRIUM): 0.9419
AUC (HEC251_ENDOMETRIUM): 0.8279
AUC (HEC265_ENDOMETRIUM): 0.8825
AUC (HEP3B217_LIVER): 1.23
AUC (HEYA8_OVARY): 1.2
AUC (HGC27_STOMACH): 1.226
AUC (HLF_LIVER): 0.794
AUC (HMC18_BREAST): 1.228
AUC (HOS_BONE): 1.145
AUC (HPAC_PANCREAS): 1.288
AUC (HS294T_SKIN): 1.038
AUC (HS618T_LUNG): 1.097
AUC (HS729_SOFT_TISSUE): 1.1211
AUC (HS766T_PANCREAS): 1.2108
AUC (HS852T_SKIN): 1.089
AUC (HS939T_SKIN): 1.116
AUC (HS944T_SKIN): 1.026
AUC (HSC2_UPPER_AERODIGESTIVE_TRACT): 1.102
AUC (HSC3_UPPER_AERODIGESTIVE_TRACT): 1.094
AUC (HT29_LARGE_INTESTINE): 1.23
AUC (HT55_LARGE_INTESTINE): 1.212
AUC (HT144_SKIN): 1.106
AUC (HT1080_SOFT_TISSUE): 0.9733
AUC (HT1376_URINARY_TRACT): 0.9173
AUC (HUCCT1_BILIARY_TRACT): 1.078
AUC (HUH6_LIVER): 0.9719
AUC (HUH7_LIVER): 1.132
AUC (HUH28_BILIARY_TRACT): 1.093
AUC (HUPT3_PANCREAS): 1.102
AUC (IALM_LUNG): 1.165
AUC (IGR1_SKIN): 1.13
AUC (IGR37_SKIN): 1.06
AUC (IGROV1_OVARY): 0.9036
AUC (IM95_STOMACH): 0.9524
AUC (IPC298_SKIN): 1.071
AUC (ISHIKAWAHERAKLIO02ER_ENDOMETRIUM): 1.087
AUC (ISTMES1_PLEURA): 0.902
AUC (ISTMES2_PLEURA): 1.138
AUC (J82_URINARY_TRACT): 1.062
AUC (JHH1_LIVER): 0.9889
AUC (JHH4_LIVER): 0.8541
AUC (JHH5_LIVER): 1.201
AUC (JHH6_LIVER): 1.182
AUC (JHH7_LIVER): 1.125
AUC (JHOC5_OVARY): 1.064
AUC (JHOM1_OVARY): 1.08
AUC (JHOS2_OVARY): 1.281
AUC (JHUEM2_ENDOMETRIUM): 0.8483
AUC (JIMT1_BREAST): 0.9922
AUC (JMSU1_URINARY_TRACT): 1.004
AUC (K029AX_SKIN): 1.1273
AUC (KALS1_CENTRAL_NERVOUS_SYSTEM): 1.102
AUC (KELLY_AUTONOMIC_GANGLIA): 1.134
AUC (KMBC2_URINARY_TRACT): 0.9911
AUC (KMRC1_KIDNEY): 1.146
AUC (KMRC3_KIDNEY): 1.058
AUC (KMRC20_KIDNEY): 1.146
AUC (KNS42_CENTRAL_NERVOUS_SYSTEM): 1.1
AUC (KNS60_CENTRAL_NERVOUS_SYSTEM): 1.09
AUC (KNS62_LUNG): 1.118
AUC (KNS81_CENTRAL_NERVOUS_SYSTEM): 1.075
AUC (KP2_PANCREAS): 0.9926
AUC (KP3_PANCREAS): 1.089
AUC (KP4_PANCREAS): 0.9662
AUC (KPL1_BREAST): 1.217
AUC (KU1919_URINARY_TRACT): 0.9667
AUC (KYSE30_OESOPHAGUS): 1.063
AUC (KYSE70_OESOPHAGUS): 1.0546
AUC (KYSE140_OESOPHAGUS): 1.1657
AUC (KYSE150_OESOPHAGUS): 1.101
AUC (KYSE180_OESOPHAGUS): 1.135
AUC (KYSE270_OESOPHAGUS): 1.03
AUC (KYSE410_OESOPHAGUS): 1.091
AUC (KYSE510_OESOPHAGUS): 1.034
AUC (KYSE520_OESOPHAGUS): 1.133
AUC (L33_PANCREAS): 1.426
AUC (LC1SQSF_LUNG): 1.115
AUC (LCLC103H_LUNG): 1.231
AUC (LI7_LIVER): 0.9601
AUC (LK2_LUNG): 1.126
AUC (LMSU_STOMACH): 1.053
AUC (LN18_CENTRAL_NERVOUS_SYSTEM): 1.129
AUC (LN229_CENTRAL_NERVOUS_SYSTEM): 1.034
AUC (LNCAPCLONEFGC_PROSTATE): 0.9173
AUC (LOUNH91_LUNG): 1.097
AUC (LOVO_LARGE_INTESTINE): 1.325
AUC (LOXIMVI_SKIN): 1.09
AUC (LS180_LARGE_INTESTINE): 1.075
AUC (LS411N_LARGE_INTESTINE): 1.3262
AUC (LS513_LARGE_INTESTINE): 1.3335
AUC (LS1034_LARGE_INTESTINE): 1.506
AUC (LU99_LUNG): 0.9959
AUC (LUDLU1_LUNG): 0.9789
AUC (LXF289_LUNG): 1.119
AUC (MALME3M_SKIN): 0.9879
AUC (MCAS_OVARY): 1.03
AUC (MCF7_BREAST): 1.188
AUC (MDAMB175VII_BREAST): 1.1488
AUC (MDAMB231_BREAST): 1.063
AUC (MDAMB435S_SKIN): 1.117
AUC (MDAMB436_BREAST): 1.147
AUC (MDAMB468_BREAST): 1.0692
AUC (MELHO_SKIN): 1.016
AUC (MELJUSO_SKIN): 1.072
AUC (MESSA_SOFT_TISSUE): 0.9027
AUC (MEWO_SKIN): 1.126
AUC (MFE280_ENDOMETRIUM): 1.168
AUC (MFE296_ENDOMETRIUM): 1.031
